Assay results as given in patent US20110136854A1, “NOVEL 9-AZA-BICYCLO[3.3.1]NON-3-YLOXY CHROMEN-2-ONE DERIVATIVES AND THEIR USE AS MONOAMINE NEUROTRANSMITTER RE-UPTAKE INHIBITORS” (NeuroSearch A/S, priority 2008, published 2011).
Where a name gives a salt, the structure may show the parent alone. Read-outs that look alike come from different tables or passages of the source.

Tests used:
Format in all cases: biochemical
[1] = target: T1, reuptake of noradrenaline (NA) in synaptosomes (Rattus norvegicus, UniProt Q63380); assay: Inhibition of NA reuptake in synaptosomes
T1 construct: in synaptosomes as described in WO 97/16451; from tissue
Description: (§1) Compounds of the invention may be tested for their ability to inhibit reuptake of the monoamines dopamine, noradrenaline and serotonin in synaptosomes e.g. such as described in WO 97/30997 (NeuroSearch NS) or WO 97/16451 (NeuroSearch A/S). Based on the balanced activity observed in these tests the compound of the invention is considered useful for the treatment, prevention or alleviation of a disease or a disorder or a condition of a mammal, including a human, which disease, disorder or condition is responsive to inhibition of monoamine neurotransmitter re-uptake in the central nervous system.
(§2) Compounds were tested for their ability to inhibit the reuptake of the mono-amine neurotransmitters dopamine (DA) noradrenaline (NA) and serotonine (5-HT) in synaptosomes as described in WO 97/16451 (NeuroSearch NS).
(§3) The test values are given as IC50 (the concentration (μM) of the test substance which inhibits the specific binding of ^3H-DA, ^3H-NA, or ^3H-5-HT by 50%).

[2] = target: T2, reuptake of serotonine (5-HT) in synaptosomes (Rattus norvegicus, UniProt P31652); assay: Inhibition of 5-HT reuptake in synaptosomes
T2 construct: serotonine (5-HT) in synaptosomes as described in WO 97/16451; from tissue
Description: as §1, §2, §3

[3] = target: T3, reuptake of dopamine (DA) in synaptosomes (Rattus norvegicus, UniProt P23977); assay: Inhibition of DA reuptake in synaptosomes; settings: 3H-DA, read-out: DA-uptake IC50
T3 construct: in synaptosomes as described in WO 97/16451; from tissue
Description: as §1, §2, §3

T1 sequence (Q63380 1-617): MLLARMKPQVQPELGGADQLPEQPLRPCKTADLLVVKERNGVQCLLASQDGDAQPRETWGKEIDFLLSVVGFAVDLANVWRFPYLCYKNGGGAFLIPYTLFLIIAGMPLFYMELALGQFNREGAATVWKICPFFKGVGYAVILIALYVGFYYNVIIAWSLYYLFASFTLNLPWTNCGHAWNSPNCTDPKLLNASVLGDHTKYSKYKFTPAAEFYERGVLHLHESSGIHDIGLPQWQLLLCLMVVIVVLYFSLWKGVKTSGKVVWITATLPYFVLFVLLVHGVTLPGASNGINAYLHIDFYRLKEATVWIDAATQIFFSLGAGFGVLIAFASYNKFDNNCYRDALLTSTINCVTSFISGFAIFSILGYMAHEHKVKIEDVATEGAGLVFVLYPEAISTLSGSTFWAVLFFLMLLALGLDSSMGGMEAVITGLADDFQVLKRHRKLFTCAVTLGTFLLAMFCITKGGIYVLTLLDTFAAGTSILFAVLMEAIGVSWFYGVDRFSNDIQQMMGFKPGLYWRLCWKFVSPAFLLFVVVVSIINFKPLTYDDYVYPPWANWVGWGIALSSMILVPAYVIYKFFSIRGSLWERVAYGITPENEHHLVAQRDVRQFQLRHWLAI
T2 sequence (P31652 whole entry): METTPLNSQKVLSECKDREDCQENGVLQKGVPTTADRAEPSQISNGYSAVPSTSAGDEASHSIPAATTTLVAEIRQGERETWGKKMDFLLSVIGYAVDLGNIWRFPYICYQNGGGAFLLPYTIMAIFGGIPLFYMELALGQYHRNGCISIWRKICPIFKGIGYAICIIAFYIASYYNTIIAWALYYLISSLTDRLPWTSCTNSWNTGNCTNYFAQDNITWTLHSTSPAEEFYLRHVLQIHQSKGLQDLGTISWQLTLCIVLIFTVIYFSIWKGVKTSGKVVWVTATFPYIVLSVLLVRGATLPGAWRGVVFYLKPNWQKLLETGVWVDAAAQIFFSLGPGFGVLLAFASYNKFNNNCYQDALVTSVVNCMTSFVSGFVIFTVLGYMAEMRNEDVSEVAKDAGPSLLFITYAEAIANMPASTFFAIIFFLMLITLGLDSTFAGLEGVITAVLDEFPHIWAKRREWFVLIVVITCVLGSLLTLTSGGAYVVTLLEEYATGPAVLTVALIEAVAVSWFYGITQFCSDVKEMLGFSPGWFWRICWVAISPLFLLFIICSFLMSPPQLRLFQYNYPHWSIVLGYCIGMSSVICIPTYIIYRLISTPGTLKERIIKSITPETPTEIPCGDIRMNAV
T3 sequence (P23977 whole entry): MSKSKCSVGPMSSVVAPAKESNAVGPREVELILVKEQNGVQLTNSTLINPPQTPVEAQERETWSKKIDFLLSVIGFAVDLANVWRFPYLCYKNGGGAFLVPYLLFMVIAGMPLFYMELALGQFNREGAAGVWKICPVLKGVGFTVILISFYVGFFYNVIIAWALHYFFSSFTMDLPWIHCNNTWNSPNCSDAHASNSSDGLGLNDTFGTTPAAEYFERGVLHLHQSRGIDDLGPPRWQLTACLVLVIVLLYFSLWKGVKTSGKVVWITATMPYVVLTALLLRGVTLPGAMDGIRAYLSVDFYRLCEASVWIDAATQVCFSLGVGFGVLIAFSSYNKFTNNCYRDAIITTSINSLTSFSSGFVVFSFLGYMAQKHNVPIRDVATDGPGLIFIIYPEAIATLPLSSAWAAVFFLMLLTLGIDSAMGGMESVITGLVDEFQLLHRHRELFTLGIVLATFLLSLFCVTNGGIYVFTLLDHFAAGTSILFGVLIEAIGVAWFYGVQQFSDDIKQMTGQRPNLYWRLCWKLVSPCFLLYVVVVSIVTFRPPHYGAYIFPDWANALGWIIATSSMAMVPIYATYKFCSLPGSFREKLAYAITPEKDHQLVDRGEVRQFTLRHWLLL

SMILES	IC50 [1] [nM]	IC50 [2] [nM]	IC50 [3] [nM]	IC50 ([1]; synaptosomes, 3H-NA, read-out: NA-uptake IC50) [nM]
O=c1ccc2ccc(O[C@@H]3C[C@H]4CCC[C@@H](C3)N4)cc2o1 [Compound A1, exo-7-(9-Aza-bicyclo[3.3.1]non-3-yloxy)-chromen-2-one hydrochloric acid salt]	76	1.3	240	
CN1[C@@H]2CCC[C@H]1C[C@H](Oc1ccc3ccc(=O)oc3c1)C2 [Compound A2, exo-7-(9-Methyl-9-aza-bicyclo[3.3.1]non-3-yloxy)-chromen-2-one hydrochloric acid salt]		2.9	150	270
